Earlier results on one substance are cited in US20030211175A1, “Methods and compositions for dietary supplements” (priority 2002, published 2003).

Turning to Chromium picolinate, under “human”, the “reducing an elevated blood glucose level” value was “moderately effective”. Besides, under “in vivo”, the toxicity result is on record as “considerable toxicity”.
